Results as given in patent US20240308988A1, “Method For Controlling Diamide Resistant Pests and Compounds Therefor” (priority 2021, published 2024).

Columns and labels:
[1] = test system: Resistant Plutella xylostella R1 (multi-resistant larvae having the G4946E resistance mutation); test: Resistant Plutella xylostella R1 (Diamond back moth) larvicide L3, feeding/contact, sprayed Chinese cabbage leaves; format: in vivo; details: Plutella xylostella, 96 h, read-out: control of the resistant strain of Plutella xylostella R1
Protocol: Resistant Plutella xylostella R1 (Diamond back moth) larvicide L3, feeding/contact Chinese cabbage plants were sprayed with diluted test solutions in an application chamber. Cut off leaves were placed into petri dishes with wetted filter paper and infested 1 day after application with 10 L3 multi-resistant Plutella xylostella larvae having the G4946E resistance mutation.
Samples were assessed 4 days after infestation for mortality and growth regulation.
Chlorantraniliprole was used as standard and a resistance factor of 146 was obtained for this strain.
Plutella xylostella resistant strain R1 originally collected from Taiwan in 2012 that carries the RyR mutation G4946E conferring resistance to diamides. The strain is reared on cabbage plants (Brassica aleracea) and selected approximately every two weeks with chlorantraniliprole.

[2] = test system: Resistant Plutella xylostella R4 (carries the RyR mutation G4946E); test: Resistant Plutella xylostella R4 (Diamond back moth) larvicide L1, feeding/contact, artificial diet in 24-well plates; format: in vivo; details: Plutella xylostella, 192 h, read-out: control of the resistant strain of Plutella xylostella R4
Protocol: Resistant Plutella xylostella R4 (Diamond back moth) larvicide L1, feeding/contact 24-well microtiter plates with artificial diet were treated with aqueous test solutions prepared from 10′000 ppm DMSO stock solutions by pipetting. After drying, around 30 Plutella eggs were pipetted through a plastic stencil onto a gel blotting paper and the plate was closed with it. The samples were assessed for mortality in comparison to untreated samples 8 days after infestation.
Chlorantraniliprole was used as standard and a resistance factor of 242 was obtained for this strain
Plutella xylostella resistant strain R4 originated in the lab in 2021 from crossing the R1 strain with a lab-reared susceptible P. xylostella strain (SUS). R4 can be reared and tested on artificial diet and also carries the RyR mutation G4946E conferring resistance to diamides. The strain is selected approximately every two weeks with chlorantraniliprole. The following compounds, according to the present invention, gave at least 80% control of the resistant strain of Plutella xylostella R4 at 50 ppm or below: P11, P18, P26, P31, P33, P34, P36, P38, P42, P43, P46, P49, P50, P52, P56, P58, P60, P61, P63, P64, P65, P66, P67, P73, P76, P84, P97, P99, P102, P105.

[3] = test system: Plutella xylostella (Diamond back moth) ryanodine receptor, containing the G4946E resistance mutation; test: In vitro calcium fluorescence assay (Fluo-8 NW, FDSS) in human embryonic kidney cells expressing the ryanodine receptor; format: cell-based; details: table; EC50 (compound)/EC50 (cyantraniliprole); G4946E RyR in HEK cells
Protocol: Human embryonic kidney cells expressing the Plutella xylostella (Diamond back moth) ryanodine receptor, containing the G4946E resistance mutation, are loaded with Fluo-8 No Wash (NW) calcium-sensitive dye which responds by fluorescence to a change in intracellular calcium (e.g. stimulated by activation of ryanodine receptor). Test compounds are added in 10 rates to a 384-well plate containing dye-loaded cells and the fluorescent signal is measured using the Hamamatsu FDSS (Functional Drug Screening system). Dose-response curves are plotted to estimate the EC50. EC50 are normalized against an in-assay reference standard (cyantraniliprole) to address inter-assay variability. The ratio for a given compound is then obtained by the following formula:
REC50=EC50 (compound)/EC50 (cyantraniliprole).

Row | Compound | pest or weed control at 50 µg/mL [1] | pest or weed control at 50 µg/mL [2] | REC50 (Compound of the invention) [3]
1 | Cc1cc(C#N)cc(C(N)=O)c1NC(=O)c1cc(Cn2nnc(-c3ccc(C(F)(F)F)cc3)n2)nn1-c1ncccc1Cl [Compound P67, N-(2-carbamoyl-4-cyano-6-methyl-phenyl)-2-(3-chloro-2-pyridyl)-5-[[5-[4-(trifluoromethyl)phenyl]tetrazol-2-yl]methyl]pyrazole-3-carboxamide] | ≥ 80% | ≥ 80% | 0.63
2 | Cc1cc(I)cc(C(N)=O)c1NC(=O)c1cc(OCC(F)(F)F)nn1-c1ncccc1Cl [Compound P11, N-(2-carbamoyl-4-iodo-6-methyl-phenyl)-2-(3-chloro-2-pyridyl)-5-(2,2,2-trifluoroethoxy)pyrazole-3-carboxamide] | ≥ 80% | ≥ 80% | –
3 | NC(=O)c1cc(Cl)cc(Br)c1NC(=O)c1cc(Br)nn1-c1ncccc1Cl [Compound P34, 5-bromo-N-(2-bromo-6-carbamoyl-4-chloro-phenyl)-2-(3-chloro-2-pyridyl) pyrazole-3-carboxamide] | ≥ 80% | ≥ 80% | 0.18
4 | NC(=O)c1cc(Cl)cc(Cl)c1NC(=O)c1cc(Cn2nnc(-c3ccc(C(F)(F)F)cc3)n2)nn1-c1ncccc1Cl [Compound P58, N-(2-carbamoyl-4,6-dichloro-phenyl)-2-(3-chloro-2-pyridyl)-5-[[5-[4-(trifluoromethyl)phenyl]tetrazol-2-yl]methyl]pyrazole-3-carboxamide] | ≥ 80% | ≥ 80% | –
5 | NC(=O)c1cc(Cl)cc(Cl)c1NC(=O)c1cc(I)nn1-c1ncccc1Cl [Compound P50, N-(2-carbamoyl-4,6-dichloro-phenyl)-2-(3-chloro-2-pyridyl)-5-iodo-pyrazole-3-carboxamide] | ≥ 80% | ≥ 80% | –
6 | Cc1cc(C#N)cc(C(N)=O)c1NC(=O)c1cc(C(F)(F)F)nn1-c1ncccc1Cl [Compound P31, N-(2-carbamoyl-4-cyano-6-methyl-phenyl)-2-(3-chloro-2-pyridyl)-5-(trifluoromethyl)pyrazole-3-carboxamide] | ≥ 80% | ≥ 80% | 0.28
7 | Cc1cc(Br)cc(C(N)=O)c1NC(=O)c1cc(Cn2ncc(C(F)(F)F)n2)nn1-c1ncccc1Cl [Compound P38, N-(4-bromo-2-carbamoyl-6-methyl-phenyl)-2-(3-chloro-2-pyridyl)-5-[[4-(trifluoromethyl)triazol-2-yl]methyl]pyrazole-3-carboxamide] | ≥ 80% | ≥ 80% | –
8 | Cc1cc(I)cc(C(N)=O)c1NC(=O)c1cc(Br)nn1-c1ncccc1Cl [Compound P63, 5-bromo-N-(2-carbamoyl-4-iodo-6-methyl-phenyl)-2-(3-chloro-2-pyridyl) pyrazole-3-carboxamide] | ≥ 80% | ≥ 80% | 0.19
9 | Cc1cc(Br)cc(C(N)=O)c1NC(=O)c1cc(Cn2nnc(-c3ccc(C(F)(F)F)cc3)n2)nn1-c1ncccc1Cl [Compound P43, N-(4-bromo-2-carbamoyl-6-methyl-phenyl)-2-(3-chloro-2-pyridyl)-5-[[5-[4-(trifluoromethyl)phenyl]tetrazol-2-yl]methyl]pyrazole-3-carboxamide] | ≥ 80% | ≥ 80% | –
10 | Cc1cc(Cl)cc(C(N)=O)c1NC(=O)c1cc(Br)nn1-c1ncccc1Br [Compound P73, 5-bromo-2-(3-bromo-2-pyridyl)-N-(2-carbamoyl-4-chloro-6-methyl-phenyl)pyrazole-3-carboxamide] | – | ≥ 80% | –
11 | Cc1cc(Cl)cc(C(N)=O)c1NC(=O)c1cc(Cn2nnc(-c3ccccc3)n2)nn1-c1ncccc1Cl [Compound P105, N-(2-carbamoyl-4-chloro-6-methyl-phenyl)-2-(3-chloro-2-pyridyl)-5-[(5-phenyltetrazol-2-yl)methyl] pyrazole-3-carboxamide] | – | ≥ 80% | –
12 | NC(=O)c1cc(Br)cc(Cl)c1NC(=O)c1cc(I)nn1-c1ncccc1Cl [Compound P36, N-(4-bromo-2-carbamoyl-6-chloro-phenyl)-2-(3-chloro-2-pyridyl)-5-iodo-pyrazole-3-carboxamide] | ≥ 80% | ≥ 80% | –
13 | Cc1cc(Cl)cc(C(N)=O)c1NC(=O)c1cc(Cn2nnc(-c3ccc(Br)cc3)n2)nn1-c1ncccc1Cl [Compound P49, 5-[[5-(4-bromophenyl)tetrazol-2-yl]methyl]-N-(2-carbamoyl-4-chloro-6-methyl-phenyl)-2-(3-chloro-2-pyridyl)pyrazole-3-carboxamide] | ≥ 80% | ≥ 80% | –
14 | Cc1cc(Cl)cc(C(N)=O)c1NC(=O)c1cc(C2CC2)nn1-c1ncccc1Cl [Compound P76, N-(2-carbamoyl-4-chloro-6-methyl-phenyl)-2-(3-chloro-2-pyridyl)-5-cyclopropyl-pyrazole-3-carboxamide] | ≥ 80% | ≥ 80% | 0.42
15 | NC(=O)c1cc(Cl)cc(Cl)c1NC(=O)c1cc(Br)nn1-c1ncc(Cl)cc1Cl [Compound P33, 5-bromo-N-(2-carbamoyl-4,6-dichloro-phenyl)-2-(3,5-dichloro-2-pyridyl) pyrazole-3-carboxamide] | ≥ 80% | ≥ 80% | 0.31
16 | NC(=O)c1cc(I)cc(Cl)c1NC(=O)c1cc(C(F)(F)F)nn1-c1ncccc1Cl [Compound P60, N-(2-carbamoyl-6-chloro-4-iodo-phenyl)-2-(3-chloro-2-pyridyl)-5-(trifluoromethyl)pyrazole-3-carboxamide] | – | ≥ 80% | –
17 | NC(=O)c1cc(Br)cc(Br)c1NC(=O)c1cc(C(F)(F)F)nn1-c1ncccc1Cl [Compound P46, 2-(3-chloro-2-pyridyl)-N-(2,4-dibromo-6-carbamoyl-phenyl)-5-(trifluoromethyl)-pyrazole-3-carboxamide] | – | ≥ 80% | 0.39
18 | NC(=O)c1cc(Cl)cc(Br)c1NC(=O)c1cc(Cn2ncc(C(F)(F)F)n2)nn1-c1ncccc1Cl [Compound P52, N-(2-bromo-6-carbamoyl-4-chloro-phenyl)-2-(3-chloro-2-pyridyl)-5-[[4-(trifluoromethyl)triazol-2-yl]methyl] pyrazole-3-carboxamide] | – | ≥ 80% | –
19 | Cc1cc(Cl)cc(C(N)=O)c1NC(=O)c1cc(Cn2nnc(-c3cccc(C(F)(F)F)c3)n2)nn1-c1ncccc1Cl [Compound P97, N-(2-carbamoyl-4-chloro-6-methyl-phenyl)-2-(3-chloro-2-pyridyl)-5-[[5-[3-(trifluoromethyl)phenyl]tetrazol-2-yl]methyl]pyrazole-3-carboxamide] | – | ≥ 80% | –
20 | NC(=O)c1cc(I)cc(F)c1NC(=O)c1cc(C(F)(F)F)nn1-c1ncccc1Cl [Compound P64, N-(2-carbamoyl-6-fluoro-4-iodo-phenyl)-2-(3-chloro-2-pyridyl)-5-(trifluoromethyl)pyrazole-3-carboxamide] | – | ≥ 80% | 0.69
